Source: the supplement of paper PMC7806825
± gives the standard deviation of the averaged measurements.

Tested on: McpC ligand-binding domain (Salmonella Typhimurium SL1344)
Experiment: protein melting temperature (Tm) in presence of compound (degrees C); higher = more thermal stabilisation (possible ligand binding)
Conditions: compound stock concentration: 10-20 mM, 2 uL in 10 uL reaction

protein melting temperature (Biolog plate: PM03B)	protein melting temperature (Biolog plate: PM01)	protein melting temperature (Biolog plate: PM05)	SMILES	also measured
44.6	–	–	N[C@@H]1C(O)O[C@H](CO)[C@@H](O)[C@@H]1O (stereo partly drawn) [D-Mannosamine]	–
–	44.2	–	OC[C@H]1OC(O)[C@@H](O)[C@@H](O)[C@@H]1O (stereo partly drawn) [D-Mannose]	–
–	–	–	OC[C@H]1O[C@@](CO)(O[C@H]2O[C@H](CO)[C@@H](O)[C@H](O)[C@H]2O)[C@@H](O[C@H]2O[C@H](CO)[C@@H](O)[C@H](O)[C@H]2O)[C@@H]1O [D-Melezitose]	protein melting temperature (Biolog plate: PM02A): 44.5
–	44.7	–	OC[C@H]1O[C@H](OC[C@H]2OC(O)[C@H](O)[C@@H](O)[C@@H]2O)[C@H](O)[C@@H](O)[C@H]1O (stereo partly drawn) [D-Melibiose]	–
–	–	–	CSCC[C@@H](N)C(=O)O [D-Methionine]	protein melting temperature (Biolog plate: PM04A): 43.7
–	–	43.7	CC(C)(CO)[C@@H](O)C(=O)NCCC(=O)O [D-Pantothenic acid]	–
–	45	–	OCC1(O)OC[C@@H](O)[C@@H](O)[C@H]1O (stereo partly drawn) [D-Psicose]	–
–	–	–	OC[C@H]1O[C@H](OC[C@H]2O[C@H](O[C@]3(CO)O[C@H](CO)[C@@H](O)[C@@H]3O)[C@H](O)[C@@H](O)[C@@H]2O)[C@H](O)[C@@H](O)[C@H]1O [D-Raffinose]	protein melting temperature (Biolog plate: PM02A): 44.4
–	–	–	O=C1O[C@H](CO)[C@@H](O)[C@H]1O [D-Ribono-1,4-Lactone]	protein melting temperature (Biolog plate: PM02A): 44.4
–	44.2	–	O[C@@H]1[C@H](O)[C@H](O)CO[C@H]1O [D-Ribose]	–
–	44.4	–	O=C(O)[C@@H](O)[C@@H](O)[C@H](O)[C@@H](O)C(=O)O [D-Saccharic acid]	–
–	45	–	OC[C@@H](O)[C@@H](O)[C@H](O)[C@@H](O)CO [D-Sorbitol]	–
–	–	–	O=C(CO)[C@@H](O)[C@@H](O)[C@H](O)CO [D-Tagatose]	protein melting temperature (Biolog plate: PM02A): 44
–	44	–	C[C@H](O)[C@@H](N)C(=O)O [D-Threonine]	–
–	43.9	–	OC[C@H]1O[C@H](O[C@H]2O[C@H](CO)[C@@H](O)[C@H](O)[C@H]2O)[C@H](O)[C@@H](O)[C@@H]1O [D-Trehalose]	–
44.7	–	–	CC(C)[C@@H](N)C(=O)O [D-Valine]	–
–	–	44.4	CC(=O)N(O)CCCCCNC(=O)CCC(=O)N(O)CCCCCNC(=O)CCC(=O)N(O)CCCCCN [Deferoxamine]	–
–	–	–	OC[C@H]1OC(O[C@H]2[C@H](O)[C@@H](O)C(O[C@H]3[C@H](O)[C@@H](O)[C@@H](O)O[C@@H]3CO)O[C@@H]2CO)[C@H](O)[C@@H](O)[C@@H]1O (some centres undefined) [Dextrin]	protein melting temperature (Biolog plate: PM02A): 44
–	–	–	OP(O)(=S)S [Dithiophosphate]	protein melting temperature (Biolog plate: PM04A): 43.6 ± 0.59
–	44.6	–	OC[C@@H](O)[C@H](O)[C@H](O)[C@@H](O)CO [Dulcitol]	–
44.4	–	–	NCCO [Ethanolamine]	–
–	–	43.8	Nc1nc(=O)c2nc(CNc3ccc(C(=O)N[C@@H](CCC(=O)O)C(=O)O)cc3)cnc2[nH]1 [Folic acid]	–
45.6	–	–	NC=O [Formamide]	–
–	44.6	–	O=C(O)/C=C/C(=O)O [Fumaric acid]	–
–	–	–	O=C[C@H](O)[C@@H](O)[C@H](O)[C@H](O)CO[C@@H]1O[C@H](CO)[C@@H](O)[C@H](O)[C@H]1O [Gentiobiose]	protein melting temperature (Biolog plate: PM02A): 44.5

protein melting temperature (Biolog plate: PM03B)	protein melting temperature (Biolog plate: PM01)	protein melting temperature (Biolog plate: PM05)	SMILES	also measured
45.7	44.9	–	NC(=O)[C@H]1O[C@@H](O)[C@H](O)[C@@H](O)[C@@H]1O [Glucuronamide]	–
–	–	43.6	N[C@@H](CCC(=O)N[C@@H](CS)C(=O)NCC(=O)O)C(=O)O [Glutathione]	protein melting temperature (Biolog plate: PM04A): 43.7
44.5	–	–	NCC(=O)N[C@@H](CC(N)=O)C(=O)O [Gly-Asn]	–
–	44.4	–	NCC(=O)N[C@@H](CC(=O)O)C(=O)O [Gly-Asp]	–
45.2	–	–	NCC(=O)N[C@@H](CCC(N)=O)C(=O)O [Gly-Gln]	–
45.1	44.9	–	NCC(=O)N[C@@H](CCC(=O)O)C(=O)O [Gly-Glu]	–
45.2	–	–	CSCC[C@H](NC(=O)CN)C(=O)O [Gly-Met]	protein melting temperature (Biolog plate: PM04A): 43.8
–	44.2	–	NCC(=O)N1CCC[C@H]1C(=O)O [Gly-Pro]	–
44.8	–	43.9	NCC(=O)O [Glycine]	protein melting temperature (Biolog plate: PM02A): 44.4
–	–	–	OC[C@H]1O[C@H](OC[C@H]2O[C@H](O[C@H]3[C@H](O)[C@@H](O)[C@@H](O)O[C@@H]3CO)[C@H](O)[C@@H](O)[C@@H]2O[C@H]2O[C@H](CO)[C@@H](O)[C@H](O)[C@H]2O)[C@H](O)[C@@H](O)[C@@H]1O [Glycogen]	protein melting temperature (Biolog plate: PM02A): 44.8
44.7	–	44.4	Nc1nc2[nH]cnc2c(=O)[nH]1 [Guanine]	–
–	–	–	Nc1nc2c(ncn2[C@@H]2O[C@H](CO)[C@@H](O)[C@H]2OP(=O)(O)O)c(=O)[nH]1 [Guanosine 2`-Monophosphate]	protein melting temperature (Biolog plate: PM04A): 44
–	–	–	Nc1nc2c(ncn2[C@@H]2O[C@H](CO)[C@@H](OP(=O)(O)O)[C@H]2O)c(=O)[nH]1 [Guanosine 3`-Monophosphate]	protein melting temperature (Biolog plate: PM04A): 43.9
–	–	–	Nc1nc2c(ncn2[C@@H]2O[C@H](COP(=O)(O)O)[C@@H](O)[C@H]2O)c(=O)[nH]1 [Guanosine 5`-Monophosphate]	protein melting temperature (Biolog plate: PM04A): 43.9
45.5	–	44.5	Nc1nc2c(ncn2[C@@H]2O[C@H](CO)[C@@H](O)[C@H]2O)c(=O)[nH]1 [Guanosine]	–
45.1	–	–	NCCc1c[nH]cn1 [Histamine]	–
–	–	43.8	O=C(O)[C@@H]1C[C@@H](O)CN1 [Hydroxy-L-Proline]	protein melting temperature (Biolog plate: PM02A): 44.2
–	–	–	O=PO [Hypophosphite]	protein melting temperature (Biolog plate: PM04A): 44.1
–	–	–	NCCS(=O)O [Hypotaurine]	protein melting temperature (Biolog plate: PM04A): 44.5
–	–	44	O=c1[nH]cnc2nc[nH]c12 [Hypoxanthine]	–
44.6	44.4	44.6	O=c1[nH]cnc2c1ncn2[C@@H]1O[C@H](CO)[C@@H](O)[C@H]1O [Inosine]	–
45.6	44.8	44.9	C[C@H](N)C(=O)O [L-Alanine]	–
–	44.5	–	O[C@@H]1[C@@H](O)[C@@H](O)CO[C@H]1O [L-Arabinose]	–
–	–	–	OC[C@H](O)C(O)[C@@H](O)CO [L-Arabitol]	protein melting temperature (Biolog plate: PM02A): 43.8
45.4	–	44.6	N=C(N)NCCC[C@H](N)C(=O)O [L-Arginine]	protein melting temperature (Biolog plate: PM02A): 44.2

protein melting temperature (Biolog plate: PM03B)	protein melting temperature (Biolog plate: PM01)	protein melting temperature (Biolog plate: PM05)	SMILES	also measured
45.7	44.4	44.5	NC(=O)C[C@H](N)C(=O)O [L-Asparagine]	–
45.4	44.5	44.2	N[C@@H](CC(=O)O)C(=O)O [L-Aspartic acid]	–
44.8	–	43.8	NC(=O)NCCC[C@H](N)C(=O)O [L-Citrulline]	–
–	–	–	N[C@@H](CS(=O)(=O)O)C(=O)O [L-Cysteic acid]	protein melting temperature (Biolog plate: PM04A): 43.1
–	–	–	N[C@@H](CS(=O)O)C(=O)O [L-Cysteine Sulfinic acid]	protein melting temperature (Biolog plate: PM04A): 43
–	–	–	N[C@@H](CSCSC[C@H](N)C(=O)O)C(=O)O [L-Djenkolic acid]	protein melting temperature (Biolog plate: PM04A): 44.6
–	44.7	–	C[C@H](O)[C@@H](O)[C@@H](O)[C@H](O)C=O [L-Fucose]	–
–	–	–	OC[C@@H]1OC(O)[C@@H](O)[C@H](O)[C@H]1O (stereo partly drawn) [L-Glucose]	protein melting temperature (Biolog plate: PM02A): 44.4
44.8	44.2	44.2	N[C@@H](CCC(=O)O)C(=O)O [L-Glutamic acid]	–
45.1	44	44.9	NC(=O)CC[C@H](N)C(=O)O [L-Glutamine]	–
44.8	–	44.6	N[C@@H](Cc1c[nH]cn1)C(=O)O [L-Histidine]	protein melting temperature (Biolog plate: PM02A): 44.7
44.8	–	–	N[C@@H](CCO)C(=O)O [L-Homoserine]	protein melting temperature (Biolog plate: PM02A): 44.7
44.8	–	44.7	CC[C@H](C)[C@H](N)C(=O)O [L-Isoleucine]	protein melting temperature (Biolog plate: PM02A): 44.3
44.8	–	44.6	CC(C)C[C@H](N)C(=O)O [L-Leucine]	protein melting temperature (Biolog plate: PM02A): 44.3
–	44.7	–	O=C[C@H](O)[C@H](O)[C@@H](O)CO [L-Lyxose]	–
–	44.3	–	O=C(O)C[C@H](O)C(=O)O [L-Malic acid]	–
–	–	–	CS(=O)(=O)CC[C@H](N)C(=O)O [L-Methionine Sulfone]	protein melting temperature (Biolog plate: PM04A): 43.9
–	–	–	C[S+]([O-])CC[C@H](N)C(=O)O (stereo partly drawn) [L-Methionine Sulfoxide]	protein melting temperature (Biolog plate: PM04A): 43.6
44.7	–	44.4	CSCC[C@H](N)C(=O)O [L-Methionine]	protein melting temperature (Biolog plate: PM02A): 43.5; protein melting temperature (Biolog plate: PM04A): 43.9
44.4	–	44.7	NCCC[C@H](N)C(=O)O [L-Ornithine]	protein melting temperature (Biolog plate: PM02A): 44.4
44.8	–	43.8	N[C@@H](Cc1ccccc1)C(=O)O [L-Phenylalanine]	protein melting temperature (Biolog plate: PM02A): 44.5
45.1	44.3	44.2	O=C(O)[C@@H]1CCCN1 [L-Proline]	–
44.8	44	43.8	C[C@@H](O)[C@H](N)C(=O)O [L-Threonine]	–
44.4	–	44	N[C@@H](Cc1c[nH]c2ccccc12)C(=O)O [L-Tryptophan]	–

SMILES	protein melting temperature (Biolog plate: PM03B)	protein melting temperature (Biolog plate: PM01)	protein melting temperature (Biolog plate: PM05)	also measured
CCN [Ethylamine]	44.7	–	–	–
N[C@H]1CCOC1=O [L-Homoserine Lactone]	–	–	44.5	–
